Measured values from patent publication US20080234318A1, “Chemical Compounds” (priority 2005, published 2008).
pIC50: −log10 of the molar value.

Test system: HIV-1
Test: HOS HIV-1 infectivity assay
Format: cell-based
Details: Human immunodeficiency virus 1, BAL / IIIB, HOS cells expressing hCXCR4/hCCR5/hCD4/pHIV-LTR-luciferase, virus strain (Ba-L or IIIB) not given, read-out: Activity Level
Method: Compounds were profiled against two HIV-1 viruses, the M-tropic (CCR5 utilizing) Ba-L strain and the T-tropic (CXCR4 utilizing) IIIB strain. Both viruses were propagated in human peripheral blood lymphocytes. Compounds were tested for there ability to block infection of the HOS cell line (expressing hCXCR4/hCCR5/hCD4/pHIV-LTR-luciferase) by either HIV-1 Ba-L or HIV-1 IIIB. Compound cytotoxicity was also examined in the absence of virus addition.
HOS cells (expressing hCXCR4/hCCR5/hCD4/pHIV-LTR-luciferase) were harvested and diluted in Dulbeccos modified Eagles media supplemented with 2% FCS and non-essential amino acid to a concentration of 60,000 cells/ml. The cells were plated into 96-well plates (100 ul per well) and the plates were placed in a tissue culture incubator (37° C.; 5% CO2/95% air) for a period of 24h.
Subsequently, 50 ul of the desired drug solution (4 times the final concentration) was added to each well and the plates were returned to the tissue culture incubator (37° C.; 5% CO2/95% air) for 1h. Following this incubation 50 ul of diluted virus was added to each well (approximately 2 million RLU per well of virus). The plates were returned to the tissue culture incubator (37° C.; 5% CO2/95% air) and were incubated for a further 96h.
Following this incubation the endpoint for the virally infected cultures was quantified following addition of Steady-Glo Luciferase assay system reagent (Promega, Madison, Wis.). Cell viability or non-infected cultures was measured using a CellTiter-Glo luminescent cell viability assay system (Promega, Madison, Wis.). All luminescent readouts are performed on a Topcount luminescence detector (Packard, Meridien, Conn.).

CN1CCN(c2cccc3nc(CN(C)[C@H]4CCCc5cccnc54)c(CNS(=O)(=O)c4ccccc4)n23)CC1 [Example 37, N-{[5-(4-Methyl-1-piperazinyl)-2-({methyl[(8S)-5,6,7,8-tetrahydro-8-quinolinyl]amino}methyl)imidazo[1,2-a]pyridin-3-yl]methyl}benzenesulfonamide]
pIC50: > 7.00

CN1CCN(c2cccc3nc(CN(C)[C@H]4CCCc5cccnc54)c(CNS(=O)(=O)Cc4ccccc4)n23)CC1 [Example 38, N-{[5-(4-Methyl-1-piperazinyl)-2-({methyl[(8S)-5,6,7,8-tetrahydro-8-quinolinyl]amino}methyl)imidazo[1,2-a]pyridin-3-yl]methyl}-1-phenylmethanesulfonamide]
pIC50: > 7.00

CCNC(=O)NCc1c(CN(C)[C@H]2CCCc3cccnc32)nc2cccc(N3CCN(C)CC3)n12 [Example 39, N-Ethyl-N′-{[5-(4-methyl-1-piperazinyl)-2-({methyl[(8S)-5,6,7,8-tetrahydro-8-quinolinyl]amino}methyl)imidazo[1,2-a]pyridin-3-yl]methyl}urea]
pIC50: > 7.00

CC(C)NC(=O)NCc1c(CN(C)[C@H]2CCCc3cccnc32)nc2cccc(N3CCN(C)CC3)n12 [Example 40, N-(1-Methylethyl)-N′-{[5-(4-methyl-1-piperazinyl)-2-({methyl[(8S)-5,6,7,8-tetrahydro-8-quinolinyl]amino}methyl)imidazo[1,2-a]pyridin-3-yl]methyl}urea]
pIC50: > 7.00

CN1CCN(c2cccc3nc(CN(C)[C@H]4CCCc5cccnc54)c(CNC(=O)Nc4ccccc4)n23)CC1 [Example 41, N-{[5-(4-Methyl-1-piperazinyl)-2-({methyl[(8S)-5,6,7,8-tetrahydro-8-quinolinyl]amino}methyl)imidazo[1,2-a]pyridin-3-yl]methyl}-N′-phenylurea]
pIC50: > 7.00

CN1CCN(c2cccc3nc(CN(C)[C@H]4CCCc5cccnc54)c(CNC(=O)Nc4ccc(N(C)C)cc4)n23)CC1 [Example 42, N-[4-(Dimethylamino)phenyl]-N′-{[5-(4-methyl-1-piperazinyl)-2-({methyl[(8S)-5,6,7,8-tetrahydro-8-quinolinyl]amino}methyl)imidazo[1,2-a]pyridin-3-yl]methyl}urea]
pIC50: > 7.00

COc1ccc(NC(=O)NCc2c(CN(C)[C@H]3CCCc4cccnc43)nc3cccc(N4CCN(C)CC4)n23)cc1 [Example 43, N-[4-(Methyloxy)phenyl]-N′-{[5-(4-methyl-1-piperazinyl)-2-({methyl[(8S)-5,6,7,8-tetrahydro-8-quinolinyl]amino}methyl)imidazo[1,2-a]pyridin-3-yl]methyl}urea]
pIC50: > 7.00

CN1CCN(c2cccc3nc(CN(C)[C@H]4CCCc5cccnc54)c(CNC(N)=O)n23)CC1 [Example 44, N-{[5-(4-Methyl-1-piperazinyl)-2-({methyl[(8S)-5,6,7,8-tetrahydro-8-quinolinyl]amino}methyl)imidazo[1,2-a]pyridin-3-yl]methyl}urea]
pIC50: > 7.00
